From US8106212B2, “Substituted enaminocarbonyl compounds” (Bayer Cropscience AG, priority 2006, dated 2012)

Columns and labels:
Type in all cases: in vivo
[1] = system: larvae of the banded cucumber beetle (Diabrotica balteata); experiment: Diabrotica balteata test, larvae in soil (DIABBA); conditions: 2 ppm in soil (mg/l), efficacy calculated from emerged maize plants
Description: [table] To produce a suitable preparation of active compound, 1 part by weight of active compound is mixed with the stated amounts of solvent and emulsifier, and the concentrate is diluted with water to the desired concentration. The active compound preparation is mixed with soil. The stated concentration refers to the amount of active compound per volume unit of soil (mg/l=ppm). The treated soil is filled into pots, and 5 maize corns are placed into each pot. 3 days after sowing, larvae of the banded cucumber beetle (Diabrotica balteata) are placed into the treated soil. After the desired period of time, the kill in % is determined. The efficacy is calculated from the number of maize plants that have emerged.

Boophilus microplus = Boophilus microplus test (BOOPMI injection); conditions: 20 μg/Tier injected into abdomen, 100% = no tick has laid fertile eggs
Description: [table] To produce a suitable preparation of active compound, 1 part by weight of active compound is mixed with the stated amounts of solvent, and the concentrate is diluted with solvent to the desired concentration. The solution of active compound is injected into the abdomen (Boophilus microplus), and the animals are transferred into dishes and kept in a temperature-controlled room. After the desired period of time, the effect in % is determined. 100% means that no tick has laid any fertile eggs.

[2] = system: green peach aphid (Myzus persicae); experiment: Myzus persicae test, hydroponic treatment (MYZUPE sys.); conditions: 4 ppm in water (mg/l), pea plant
Description: [table] To produce a suitable preparation of active compound, 1 part by weight of active compound is mixed with the stated amounts of solvent and emulsifier, and the concentrate is diluted with water to the desired concentration. The preparation of active compound is mixed with water. The stated concentration refers to the amount of active compound per volume unit of water (mg/l=ppm). The treated water is filled into containers housing a pea plant (Pisum sativum) which is then infected with the green peach aphid (Myzus persicae). After the desired period of time, the kill in % is determined. 100% means that all aphids have been killed; 0% means that none of the aphids have been killed.

[3] = system: green peach aphid (Myzus persicae); experiment: Myzus test (MYZUPE spray treatment); conditions: Chinese cabbage discs sprayed
Description: [table] To produce a suitable preparation of active compound, 1 part by weight of active compound is mixed with the stated amounts of solvent and emulsifier, and the concentrate is diluted with emulsifier-containing water to the desired concentration. Discs of Chinese cabbage (Brassica pekinensis) which are infected by all stages of the green peach aphid (Myzus persicae) are sprayed with a preparation of active compound of the desired concentration. After the desired period of time, the effect in % is determined. 100% means that all aphids have been killed; 0% means that none of the aphids have been killed. [table] To produce a suitable preparation of active compound, 1 part by weight of active compound is mixed with the stated amounts of solvent and emulsifier, and the concentrate is diluted with emulsifier-containing water to the desired concentration. Discs of Chinese cabbage (Brassica pekinensis) which are infected by all stages of the green peach aphid (Myzus persicae) are sprayed with a preparation of active compound of the desired concentration. After the desired period of time, the effect in % is determined. 100% means that all aphids have been killed; 0% means that none of the aphids have been killed.

[4] = system: larvae of the mustard beetle (Phaedon cochleariae); experiment: Phaedon test (PHAECO spray treatment); conditions: 500 g/ha, Chinese cabbage discs sprayed
Description: [table] To produce a suitable preparation of active compound, 1 part by weight of active compound is mixed with the stated amounts of solvent and emulsifier, and the concentrate is diluted with emulsifier-containing water to the desired concentration. Discs of Chinese cabbage (Brassica pekinensis) are sprayed with a preparation of active compound of the desired concentration and, after drying, populated with larvae of the mustard beetle (Phaedon cochleariae). After the desired period of time, the effect in % is determined. 100% means that all beetle larvae have been killed; 0% means that none of the beetle larvae have been killed.

[5] = system: adult fleas (Ctenocephalides felis); experiment: Ctenocephalides felis; oral (CTECFE); conditions: 4 ppm in citrated cattle blood
Description: [table] To produce a suitable preparation of active compound, 1 part by weight of active compound is mixed with the stated amount of solvent. Part of the concentrate is diluted with citrated cattle blood, and the desired concentration is prepared. 20 unfed adult fleas (Ctenocephalides felis) are placed into a chamber whose top and bottom ends are closed with gauze. A metal cylinder whose bottom end is closed with parafilm is placed onto the chamber. The cylinder contains the blood/active compound preparation, which can be taken up by the fleas through the parafilm membrane. The blood is warmed to 37° C., but the flea chamber is at room temperature. After the desired period of time, the kill in % is determined. 100% means that all fleas have been killed; 0% means that none of the fleas have been killed.

[6] = system: cotton aphid (Aphis gossypii); experiment: Aphis gossypii test (APHIGO), leaf dip; conditions: 0.8 ppm, cotton leaves dipped
Description: [table] To produce a suitable preparation of active compound, 1 part by weight of active compound is mixed with the stated amounts of solvent and emulsifier, and the concentrate is diluted with emulsifier-containing water to the desired concentration. Cotton leaves (Gossypium hirsutum) which are heavily infested by the cotton aphid (Aphis gossypii) are treated by being dipped into the preparation of active compound of the desired concentration. After the desired period of time, the kill in % is determined. 100% means that all aphids have been killed; 0% means that none of the aphids have been killed.

[7] = system: green peach aphid (Myzus persicae); experiment: Myzus test; oral (MYZUPE O); conditions: 0.0064 ppm, oral uptake by sucking
Description: Myzus Test; Oral; (MYZUPE O) Solvent: 80 parts by weight of acetone To produce a suitable preparation of active compound, 1 part by weight of active compound is mixed with the stated amounts of solvent, and the concentrate is diluted with water to the desired concentration. Containers are populated with all stages of the green peach aphid (Myzus persicae), treatment is by sucking at the preparation of active compound of the desired concentration. After the desired period of time, the effect in % is determined. 100% means that all aphids have been killed; 0% means that none of the aphids have been killed.

Meloidogyne incognita = experiment: Meloidogyne test (MELGIN spray treatment); conditions: 4 ppm, nematicidal activity by formation of galls on lettuce roots (100% = no galls)
Description: [table] To produce a suitable preparation of active compound, 1 part by weight of active compound is mixed with the stated amounts of solvent, and the concentrate is diluted with water to the desired concentration. Containers are filled with sand, active compound solution, Meloidogyne incognita egg/larvae suspension and lettuce seeds. The lettuce seeds germinate and the plants develop. On the roots, galls are formed. After the desired period of time, the nematicidal activity is determined by the formation of galls in %. 100% means that no galls were found; 0% means that the number of galls on the treated plants corresponds to that of the untreated controls.

Lucilia cuprina larvae = experiment: Lucilia cuprina test (LUCICU); conditions: 4 ppm, treated horse meat
Description: [table] To produce a suitable preparation of active compound, 1 part by weight of active compound is mixed with the stated amounts of solvent, and the concentrate is diluted with water to the desired concentration. Containers containing horse meat treated with the preparation of active compound of the desired concentration are populated with Lucilia cuprina larvae. After the desired period of time, the kill in % is determined. 100% means that all larvae have been killed; 0% means that none of the larvae have been killed.

[8] = 4 g/ha, Biological Examples table
[9] = 20 g/ha, Biological Examples table
[10] = 100 g/ha, Biological Examples table

## CN(Cc1cnc(Cl)c(F)c1)C1=CC(=O)OC1 [Example 1, 4-[[(6-Chloro-5-fluoropyridin-3-yl)methyl](methyl)amino]furan-2(5H)-one]
[1]
  Kill rate in % after 10 days: 100%
Boophilus microplus
  Kill rate in % after 7 days: 30%

## CON(Cc1cnc(Cl)c(Cl)c1)C1=CC(=O)OC1 [Example 2, 4-[[(5,6-Dichloropyridin-3-yl)methyl](methoxy)amino]furan-2(5H)-one]
Boophilus microplus
  Kill rate in % after 7 days: 30%

## O=C1C=C(N(Cc2cnc(Cl)c(I)c2)C2CC2)CO1 [Example 3, 4-[[(6-Chloro-5-iodopyridin-3-yl)methyl](cyclopropyl)amino]furan-2(5H)-one]
Boophilus microplus
  Kill rate in % after 7 days: 40%

## CN(Cc1cnc(Br)c(Cl)c1)C1=CC(=O)OC1 [Example 4, 4-[[(6-Bromo-5-chloropyridin-3-yl)methyl](methyl)amino]furan-2(5H)-one]
[2]
  Kill rate in % after 5 days: 100%

## CN(Cc1cnc(Cl)nc1)C1=CC(=O)OC1 [Example 5, 4-[[(2-Chloropyrimidin-5-yl)methyl](methyl)amino]furan-2(5H)-one]
[3]; [8]
  Kill rate in % after 5 days: 100%

## O=C1C=C(N(Cc2cnc(Cl)nc2)C2CC2)CO1 [Example 6, 4-[[(2-Chloropyrimidin-5-yl)methyl](cyclopropyl)amino]furan-2(5H)-one]
[3]; [9]
  Kill rate in % after 5 days: 100%

## CC1OC(=O)C=C1N(C)Cc1cnc(Cl)c(Cl)c1 (centres unmarked) [Example 7, 4-[[(5,6-dichloropyridin-3-yl)methyl](methyl)amino]-5-methylfuran-2(5H)-one]
[3]; [10]
  Kill rate in % after 5 days: 90%

## CN(Cc1cnc(Cl)c(Cl)c1)C1=C(Cl)C(=O)OC1 [Example 8, 3-Chloro-4-[[(5,6-dichloropyridin-3-yl)methyl](methyl)amino]furan-2(5H)-one]
[3]; [10]
  Kill rate in % after 5 days: 80%

## CN(Cc1cnc(Cl)c(Cl)c1)C1=CC(=O)OC1 [Example 10, 4-[[(5,6-dichloropyridin-3-yl)methyl](methyl)amino]furan-2(5H)-one]
[3]; [8]
  Kill rate in % after 5 days: 100%
[3]; 20 g/ha, comparative table
  Kill rate in % after 5 days: 100%
[4]
  Kill rate in % after 7 days: 100%

## O=C1C=C(N(Cc2cnc(Cl)c(Cl)c2)C2CC2)CO1 [Example 11]
[3]; [8]
  Kill rate in % after 5 days: 100%
[3]; 100 g/ha, comparative table
  Kill rate in % after 5 days: 100%
[5]
  Kill rate in % after 2 days: 50%
[4]
  Kill rate in % after 7 days: 100%
Boophilus microplus
  Kill rate in % after 7 days: 50%

## Cc1cc(CN(C2=CC(=O)OC2)C2CC2)cnc1Cl [Example 12]
[6]
  Kill rate in % after 6 days: 50%

## Cc1cc(CN(C)C2=CC(=O)OC2)cnc1Cl [Example 13]
[7]
  Kill rate in % after 5 days: 70%

## CN(Cc1cnc(Cl)c(Br)c1)C1=CC(=O)OC1 [Example 14]
[3]; [9]
  Kill rate in % after 5 days: 100%

## O=C1C=C(N(Cc2cnc(Cl)c(Br)c2)C2CC2)CO1 [Example 15]
Meloidogyne incognita
  Kill rate in % after 14 days: 70%
[6]
  Kill rate in % after 6 days: 40%

## CCN(Cc1cnc(Cl)c(Cl)c1)C1=CC(=O)OC1 [Example 16]
[3]; [9]
  Kill rate in % after 5 days: 100%

## O=C1C=C(N(Cc2cnc(Cl)c(Cl)c2)C2CC2)CC1 [Example 17]
[3]; [10]
  Kill rate in % after 5 days: 100%

## CN(Cc1cnc(Cl)c(C#N)c1)C1=CC(=O)OC1 [Example 18]
[3]; [10]
  Kill rate in % after 5 days: 100%

## CN(Cc1cnc(Cl)c(I)c1)C1=CC(=O)OC1 [Example 19]
[3]; [9]
  Kill rate in % after 5 days: 70%

## CCN(Cc1cnc(Cl)c(C)c1)C1=CC(=O)OC1 [Example 20]
Boophilus microplus
  Kill rate in % after 7 days: 30%

## O=C1C=C(N(Cc2cnc(Br)c(Br)c2)C2CC2)CO1 [Example 21]
[3]; [9]
  Kill rate in % after 5 days: 80%

## CN(Cc1cnc(Br)c(Br)c1)C1=CC(=O)OC1 [Example 22]
[2]
  Kill rate in % after 5 days: 100%

## O=C1C=C(N(Cc2cnc(Br)c(Cl)c2)C2CC2)CO1 [Example 23]
Boophilus microplus
  Kill rate in % after 7 days: 30%

## CN(Cc1cnc(Br)c(F)c1)C1=CC(=O)OC1 [Example 24]
[3]; [8]
  Kill rate in % after 5 days: 100%
[2]
  Kill rate in % after 5 days: 100%

## O=C1C=C(N(Cc2cnc(Br)c(F)c2)C2CC2)CO1 [Example 25]
Lucilia cuprina larvae
  Kill rate in % after 2 days: 100%
[3]; [8]
  Kill rate in % after 5 days: 100%

## O=C1C=C(N(Cc2cnc(Cl)c(F)c2)C2CC2)CO1 [Example 26]
[5]
  Kill rate in % after 2 days: 60%
